This note sets out measurements from patent US20080113347A1, “Method for the in Vitro Diagnosis and Prognosis of Demyelinating Diseases, and for the Development of Drugs Against Demyelinating Diseases” (priority 2003, published 2008).

d = 2'-deoxy (DNA); m = 2'-O-methyl Bounds are passed on as bounds.

Data set [1] concerns dusp6 gene expression. Briefly: Differential analysis of dusp6 gene expression in oligodendrocyte cultures with Rat Genome U34 DNA arrays. It is filed as cell-based. Also noted: key to Change: Increases (I); Decreases (D); undergoes No Change (NC); Marginally Increases (MI); Marginally Decreases (MD); key to Detection: Present (P); Absent (A); Marginal (M). Conditions: for Ratio (=2^SLR): fold change vs untreated control; for Signal (dusp6, probe set U42627_at): arrays scaled to total intensity 100; for Change: vs control. The source says: Microarrays. The microarrays GeneChip Test 3 (Affymetrix, Santa Clara) were used which allow testing the quality of the RNA prior to the expression analysis with GeneChip Rat Genome U34 set (Affymetrix, Santa Clara), representing 3322 complete gene sequences. The dusp6 gene is represented in the microarray by probe set U42627_at of Affymetrix, which are sense oligonucleotides of 25 nucleotides in length designed on the basis of GeneBank U42627 sequence (Table 1).
Samples. The samples studied corresponded to primary oligodendrocyte cultures obtained from the optic nerve of 12-day old rats. To prevent inter-individual variations, each culture corresponded to a 10-animal cell pool. Treatments were made in duplicate with 10 μM AMPA (α-amino-3-hydroxy-5-methyl-4-isoxazolepropionic acid) or 3 μM kainate. The duration of treatments was 2, 10 and 15 minutes, the cells being collected immediately after treatment in the first two cases and 1 hour after the 15-minute treatment. Treatment for 10 and 15 minutes with AMPA and with kainate causes apoptosis, whereas 2-minute treatment was considered sublethal due to scarce treatment duration. After treatments, the cells were collected in TRIzol® Reagent (Life Technologies) and were stored at −80° C. until total RNA extraction.
The analysis was carried out with total RNA from oligodendrocyte cultures. Each sample corresponded to the mixture of total RNAs from two cultures and were called the following: control: untreated cultured oligodendrocytes ampa 2: oligodendrocytes treated for 2 minutes with 10 μM AMPA and collected after treatment ampa 10: oligodendrocytes treated for 10 minutes with 10 μM AMPA collected after treatment ampa 15: oligodendrocytes treated for 15 minutes with 10 μM AMPA and collected 60 minutes later Kainate 2: oligodendrocytes treated for 2 minutes with 3 μM kainate and collected after treatment Kainate 10: oligodendrocytes treated for 10 minutes with 3 μM kainate and collected after treatment Kainate 15: oligodendrocytes treated for 15 minutes with 3 μM kainate and collected 60 minutes later The total RNA of each one of the cultures was obtained by homogenizing the cells in TRIzol® Reagent (Life Technologies) following the supplier's recommendations. The resulting total RNA was cleaned with the RNeasy Mini kit (QIAGEN) (Chomczynski P. et al., Anal. Biochem., 1987, 162: 156; Chomczynski P., Biotechniques, 1993, 15: 532). 2 μg from each total RNA preparation were used as starting material for the synthesis of biotinylated cRNA with the MessageAmp™ aRNA kit (Ambion).
15 μg of each biotinylated cRNA were fragmented at 94° C. for 35 minutes in a buffer solution containing 40 mM Tris-Acetate (pH 8.1), 100 mM KOAc and 30 mM MgOAc. The fragmented cRNA was mixed with hybridization buffer (10 mM MES, 1M NaCl, 20 mM EDTA, 0.01% Tween 20) and was heated at 99° C. for 5 minutes and subsequently at 45° C. for 5 minutes, to then be loaded into the Affymetrix array. The first array in which hybridization was carried out was Affymetrix Test 3. This array allows testing the quality of the RNA prior to expression analysis in the Affymetrix® GeneChip® Rat Genome U34 set (RG-U34).
For hybridization, the arrays were incubated in a rotary oven at 45° C. for 16 hours and with a constant rotation of 60 rpm.
Washing and staining of each array was carried out in the Affymetrix® Fluidics Station. A washing and staining program was used which included:
The arrays were scanned at 560 nm using a confocal microscope using laser emission (Agilent GeneArray Scanner). Analysis of the intensity readings was carried out with Microarray Suite 5.0 software. To compare the arrays, the latter were scaled to a total intensity of 100.
Differential analysis of the dusp6 gene expression in the oligodendrocytes stimulated with regard to the control was carried out from the array comparison data obtained using the Affymetrix software. […]

Data set [2] deals with oligodendrocytes. Conditions: UO126 10 μM. On the procedure:
DUSP6 is a negative regulator of the MAPK/ERK signaling pathway which promotes cell survival, as documented above in the Background of the Invention section. Because of that, we tested if the pharmacological inhibition of this pathway potentiates oligodendrocyte death triggered by activation of AMPA receptors.
To block the MAPK/ERK pathway, oligodendrocytes were incubated with UO126, a dual MEK1 & 2 inhibitor, for 15 min prior to the excitotoxic stimulus. Subsequently, cells were exposed to AMPA 10 μM+CTZ 100 μM during 15 minutes in the presence or absence of UO126, and cell viability was assessed 24 h later by the MTT method.

Data set [3] has as its system oligodendrocytes treated with AMPA. Nature of the data set: Cell death inhibition in oligodendrocytes treated with AMPA after incubation with antisense oligonucleotides. It is filed as cell-based, rat. Conditions: ODN transfected with Lipofectin, stimulus 15 minutes, protecting effect assessed after 6 hours. On the procedure: To evaluate if dusp6 expression blocking inhibits cell death of oligodendrocytes treated with AMPA, antisense oligonucleotides (ODNs) capable of blocking said gene expression were used. The working model used in this assay is a model based on the cell death of oligodendrocytes, a typical model for study the neurodegenerative phase of said demyelinating diseases.
Oligonucleotide design was carried out based on the secondary structure of the RNA, trying to prevent sequences presenting a high internal hybridization percentage, and with the aid of AO predict (http://www.cgb.ki.se/AOpredict/) computer software. To improve efficacy and capability to degrade RNA and to reduce side effects, last-generation oligonucleotides were designed, presenting two types of modifications; 2′-O-Methyl groups in the 6 first and last bases, and phosphorothiodated groups in the 8 intermediate bases. Furthermore, the oligonucleotides were labeled with Texas Red to be able to identify the cells transfected with said oligonucleotides.
Three antisense ODNs, for the purpose of identifying active sequences, plus a sense ODN, used as a negative control, were designed. To improve penetration thereof, the ODNs were transfected using the Lipofectin kit (Invitrogen).
24 hours after seeding, the oligodendrocytes were treated with a mixture of ODs at different concentrations coupled to the transfection kit liposomes.
After 24 hours, the cells were rinsed and were left another 24 hours before the experiment to ensure total blocking of the protein under study. Subsequently, the excitotoxic stimulus, AMPA 10 μM+CTZ 100 μM, was added during 15 minutes, and the protecting effect of the different ODNs after 6 hours was assessed.

[4] abbreviates: treated 2 minutes (10 μM AMPA or 3 μM kainate), collected after treatment.
Setting [5] is: treated 10 minutes (10 μM AMPA or 3 μM kainate), collected after treatment.
Setting [6] is: treated 15 minutes (10 μM AMPA or 3 μM kainate), collected 60 minutes later.
The mark [7] stands for this setting: treatments with kainate (3 μM; 2, 10 and 15 minutes) taken together.

For the compound `C=C(C)[C@H]1CN[C@H](C(=O)O)[C@H]1CC(=O)O` [Kainate, kainate], the “SLR (vs control)” value in data set [1] (Signal Log Ratio (log2), treated 2 minutes (10 μM AMPA or 3 μM kainate), collected after treatment) is 0.6; in data set [1] (Signal Log Ratio (log2), treated 10 minutes (10 μM AMPA or 3 μM kainate), collected after treatment), 0.6; in data set [1] (Signal Log Ratio (log2), treated 15 minutes (10 μM AMPA or 3 μM kainate), collected 60 minutes later) it was 0.9; in data set [1] (setting [7]), under 1. Moreover, the results for the “Ratio (=2^SLR)” value in data set [1] (setting [4]), in data set [1] (setting [5]) and in data set [1] (setting [6]) were 1.5 fold, 1.5 fold and 1.9 fold, respectively. Besides, the Detection entry in data set [1] (setting [4]), in data set [1] (setting [5]) and in data set [1] (setting [6]) was “P” in each case. The “Signal (dusp6, probe set U42627_at)” value is recorded as 48.4 in data set [1] (setting [4]), 43.5 in data set [1] (setting [5]) and 63.7 in data set [1] (setting [6]). The “dusp6 expression increase with regard to the control” value in data set [1] (setting [7]) was “less than two fold”. Moreover, the Change entry in data set [1] (setting [4]), in data set [1] (setting [5]) and in data set [1] (setting [6]) was “I” in each case.
As for `N#CC(=C(/N)Sc1ccccc1N)/C(C#N)=C(/N)Sc1ccccc1N` [UO126], in data set [2] (15 min prior to and during 15 minutes stimulus, MTT 24 h later, p<0.05, n=3 in triplicate), the “oligodendroglial cell death induced by AMPA 10 μM+CTZ 100 μM in the presence of UO126” value was “increased three-fold”. Besides, the “oligodendroglial viability under control conditions” value in data set [2] (MTT, 24 h later) was “did not affect oligodendroglial viability”.
Consider “ODN2: antisense ODN against dusp6; 2′-O-Methyl groups in 6 first and last bases, phosphorothiodated 8 intermediate bases, Texas Red labeled (antisense TCAACGTGGCCATCCCGGGC; sugars from the 5' end m6 d8 m6, backbone, methylation of C and T or U not given here; Texas Red label, phosphorothioates in eight intermediate bases)”, for which the results for the “oligodendroglial death after stimulation with AMPA 10 μM+CTZ 100 μM” value in data set [3] and in data set [3] (listed as SEQ ID NO:3) were “significantly inhibited” and “inhibit cell death of oligodendrocytes treated with AMPA”, respectively.
Take “ODN3: antisense ODN against dusp6; 2′-O-Methyl groups in 6 first and last bases, phosphorothiodated 8 intermediate bases, Texas Red labeled (antisense CCAAGTGGACTCCCTGCAATC; sugars from the 5' end m6 d9 m6, backbone, methylation of C and T or U not given here; Texas Red label, phosphorothioates in eight intermediate bases)”: the “oligodendroglial death after stimulation with AMPA 10 μM+CTZ 100 μM” value is given as “significantly inhibited” in data set [3] and “inhibit cell death of oligodendrocytes treated with AMPA” in data set [3] (listed as SEQ ID NO:4).
